Source: ChEMBL document CHEMBL1144152, “Oceanapiside, an antifungal bis-alpha,omega-amino alcohol glycoside from the marine sponge Oceanapia phillipensis” (1999)
Converted amounts (≈) assume the structure as drawn. The source made the active and inactive calls. The calls are words filed in the database; no cut-off is given here.

Legend:
Nakaseomyces glabratus = assay: Antifungal activity against fluconazole-resistant Candida glabrata by broth dilution method; type: functional
Candida albicans [1] = assay: Antifungal activity against Candida albicans ATCC 14503; type: functional, organism-based
Candida albicans [2] = assay: Antifungal activity against fluconazole-resistant Candida albicans 96-489; type: functional, organism-based
Candida albicans [3] = assay: Antifungal activity against fluconazole-resistant Candida albicans UCD-FR1; type: functional, organism-based
Pichia kudriavzevii = assay: Antifungal activity against Candida krusei; type: functional, organism-based

Row | Compound | MIC (Nakaseomyces glabratus) | Activity (Candida albicans [1]) | Activity (Candida albicans [2]) | Activity (Candida albicans [3]) | Activity (Pichia kudriavzevii)
1 | C[C@@H]1[C@H](O)[C@@H](C)/C=C/C=C/C=C/C=C/C=C/C=C/C=C/[C@H](O[C@@H]2O[C@H](C)[C@@H](O)[C@H](N)[C@@H]2O)C[C@@H]2O[C@](O)(C[C@@H](O)C[C@@H](O)[C@H](O)CC[C@@H](O)C[C@@H](O)CC(=O)O[C@H]1C)C[C@H](O)[C@H]2C(=O)O [AMPHOTERICIN B] | 1 µg/mL (≈ 1.08 µM) | – | – | – | –
2 | C[C@@H](N)[C@H](O)CCCCCCCCCCCCCCC(=O)CCCCCCC[C@@H](O[C@@H]1O[C@H](CO)[C@@H](O)[C@H](O)[C@H]1O)[C@@H](N)CO | 10 µg/mL (≈ 15.4 µM) | inactive | inactive | inactive | inactive
3 | C[C@@H](N)[C@H](O)CCCCCCCCCCCCCCC(=O)CCCCCCC[C@@H](O)[C@@H](N)CO | 3 µg/mL (≈ 6.16 µM) | – | – | – | –
